From patent US20090030039A1, “Piperidine Derivatives as Cxcr3 Receptor Antagonists” (priority 2006, published 2009) come the findings set out here.

One data set addresses T1, human CXCR3 (Homo sapiens, UniProt P49682).
T1 construct: expressed in transfected cells; host or cells: CHO cells (membrane preparation)
T1 sequence (P49682 1-368): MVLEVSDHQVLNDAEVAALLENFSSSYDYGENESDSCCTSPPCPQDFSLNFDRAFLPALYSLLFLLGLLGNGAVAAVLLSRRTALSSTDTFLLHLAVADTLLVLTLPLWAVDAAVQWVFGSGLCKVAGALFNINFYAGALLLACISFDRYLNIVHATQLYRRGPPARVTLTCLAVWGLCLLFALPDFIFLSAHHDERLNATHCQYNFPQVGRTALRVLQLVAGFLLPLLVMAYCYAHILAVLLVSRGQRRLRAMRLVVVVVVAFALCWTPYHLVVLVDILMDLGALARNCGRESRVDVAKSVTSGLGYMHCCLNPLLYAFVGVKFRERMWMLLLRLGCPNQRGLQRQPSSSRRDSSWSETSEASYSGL
Nature of the data set: [35S]GTPγS exchange assay, CXCR3 receptor inhibition (hI-TAC-induced GTPγS-binding). It is filed as biochemical. The settings on record: membranes of human CXCR3-transfected CHO cells. A general note: GTPγS is a poorly hydrolysed GTP analogue; its binding reports G protein activation.

The mark [1] stands for this setting: -log IC50 (molar) inhibiting 50% of specific I-TAC-induced GTPγS-binding, read-out: pIC50 (converted).
The mark [2] stands for this setting: -log IC50 (molar) inhibiting 50% of specific I-TAC-induced GTPγS-binding.
[3] abbreviates: pIC50, -log IC50 (molar) inhibiting 50% of specific I-TAC-induced GTPγS-binding.

Counter-ions that a name gives are not always drawn. Like-named read-outs stand apart in the source and are kept apart here.

In general, melting point refers to the temperature, or range, at which the solid turns liquid. Molecule `Cl.Nc1cc(CN2CCC(C3(c4ccccc4)CCC(=O)NC3=O)CC2)ccc1Cl` (stereo not drawn) yielded a melting point of 287.8 °C.

In turn, `Cl.O=C1CCC(c2ccc(F)cc2F)(C2CCN(Cc3ccc(Br)cc3)CC2)C(=O)N1` (single isomer, unassigned) [Compound 195] showed a melting point of 273.9 to 278.3 °C. For the same molecule, the IC50 at human CXCR3 (setting [1]) is 316 nM.

The molecule `O=C1CCC(c2ccccc2)(C2CCN(Cc3ccc(Cl)c([N+](=O)[O-])c3)CC2)C(=O)N1` (stereo not drawn) (as salt: HCl) [Compound 12] displayed a melting point of 244.4 to 248.3 °C.

As a reminder, the pIC50 is the IC50 on a negative log10 scale, so that one unit is a factor of ten. Low values mean a large IC50, high ones a small IC50. Turning to `CN1C(=O)CCC(c2ccccc2)(C2CCN(Cc3ccc(Br)cc3)CC2)C1=O` (stereo not drawn) [Compound 125], the melting point fell in the range of 298.1 to 303.1 °C. For the same molecule, on human CXCR3 (setting [2]), the pIC50 is 5.6.

In turn, `O=C1CCC(c2ccccc2)(C2CCN(Cc3ccc(Cl)c(F)c3)CC2)C(=O)N1` (single isomer, unassigned) [Compound 40] had a melting point of 192 to 194.3 °C. For the same molecule, on human CXCR3 (setting [1]), the IC50 was 398 nM.

Consider `Cl.O=C1CCC(c2ccc(F)cc2F)(C2CCN(Cc3ccc(Cl)c(F)c3)CC2)C(=O)N1` (single isomer, unassigned) [Compound 204], for which the melting point lay within 282 to 283.8 °C. At human CXCR3 (setting [1]), the IC50 is 251 nM.

`Cl.O=C1CCC(c2ccc(F)cc2F)(C2CCN(Cc3ccc(Cl)c(F)c3)CC2)C(=O)N1` (single isomer, unassigned) [Compound 203] had a melting point of 282 to 285.9 °C. For the same molecule, at human CXCR3 (setting [1]), the IC50 is 79.4 nM.

For `O=C1CCC(c2ccccc2)(C2CCN(Cc3ccc(C(F)(F)F)cc3)CC2)CN1` (stereo not drawn) [Compound 146], on human CXCR3 (setting [1]), the IC50 was 2510 nM.

Regarding `O=C1CCC(c2ccccc2)(C2CCN(Cc3ccc(Cl)c(F)c3)CC2)C(=O)N1` (single isomer, unassigned) [Compound 41], the melting point lay within 192.3 to 196.3 °C. The pIC50 at human CXCR3 (setting [2]) was 6.4.

Turning to `O=C1CCC(c2ccccc2)(C2CCN(Cc3ccc4ccccc4c3)CC2)C(=O)N1` (stereo not drawn) [Compound 28], the IC50 on human CXCR3 (setting [1]) is 3980 nM.

With `CN1CCN(C(=O)c2cccc(C3(C4CCN(Cc5ccc(Br)cc5)CC4)CCC(=O)NC3=O)c2)CC1` (stereo not drawn) [Compound 34], on human CXCR3 (setting [1]), the IC50 is 1260 nM.

`O=C1CCC(c2ccccc2)(C2CCN(Cc3ccc(F)c(Br)c3)CC2)C(=O)N1` (stereo not drawn) [Compound 57]: the IC50 at human CXCR3 (setting [1]) is 3980 nM.

Turning to `O=C1CCC(c2ccccc2)(C2CCN(Cc3ccc(OC(F)F)cc3)CC2)C(=O)N1` (stereo not drawn) [Compound 109], the IC50 at human CXCR3 (setting [1]) was 1000 nM.

On to `O=C1CCC(c2ccc(F)cc2)(C2CCN(Cc3ccc(Cl)cc3Cl)CC2)C(=O)N1` (stereo not drawn) [Compound 75], for which the IC50 at human CXCR3 (setting [1]) was 2510 nM.

For `O=C1CCC(c2ccc(C(=O)O)cc2)(C2CCN(Cc3ccc(F)c(Cl)c3)CC2)C(=O)N1` (stereo not drawn) [Compound 190], the IC50 at human CXCR3 (setting [1]) is 6310 nM.

As for `O=C1CCC(c2cccnc2)(C2CCN(Cc3ccc(Cl)cc3)CC2)C(=O)N1` (stereo not drawn) [Compound 4], at human CXCR3 (setting [1]), the IC50 is 794 nM.

As to `CSCN1C(=O)CCC(c2ccccc2)(C2CCN(Cc3ccc(Br)cc3)CC2)C1=O` (stereo not drawn) [Compound 38], the pIC50 on human CXCR3 (setting [2]) was 6.0.

In the case of `O=C1CCC(c2ccncc2)(C2CCN(Cc3ccc(Cl)c(Cl)c3)CC2)C(=O)N1` (stereo not drawn) [Compound 169], at human CXCR3 (setting [1]), the IC50 is 1000 nM.

Regarding `O=C1CCC(c2cccnc2)(C2CCN(Cc3ccc(Br)cc3F)CC2)C(=O)N1` (stereo not drawn) [Compound 179], at human CXCR3 (setting [1]), the IC50 is 2000 nM.

In turn, `O=C1CCC(c2ccccc2)(C2CCN(Cc3ccc(Br)cc3)CC2)C(=O)N1` (stereo not drawn) [Compound 88] showed an IC50 on human CXCR3 (setting [3]) of 1260 nM.

`O=C1CCC(c2ccccc2)(C2CCN(Cc3ccc(Br)cc3)CC2)C(=O)N1` (stereo not drawn) [Compound 87] had an IC50 at human CXCR3 (setting [3]) of 794 nM.
